In brackets after ≈: the same amount, converted by molar mass. Residues, ends and D or L forms follow the SMILES beside them. *: point of attachment. Palmitoyl = CCCCCCCCCCCCCCCC(=O)*

The results in this text go back to article PMC11003925, “Antimicrobial activity and properties of de novo design of short synthetic lipopeptides” (Folia Microbiologica, 2024).

For one assay, the system named is A. baumannii DBM 3183. The experiment in a line: microbe, parasite or virus in culture. The assay is classed as cell-based, Acinetobacter baumannii. The following applies: DBM 3183, 25 h. The protocol: (§1) A Bioscreen C automated microbiology growth curve analysis system (Growth Curves, Piscataway, NJ, USA) was used for the quantitative determination of antimicrobial activity (minimal inhibitory concentration, MIC) of PAL/LCA-peptides. Optical density was measured with a wide bandpass filter (wavelength range 420–580 nm) at regular intervals and temperatures. This assay was performed in a special microtiter plate (10 × 10 wells) that allowed the simultaneous testing of a large number of samples against several microorganisms. The total testing volume was 100 µL, obtained by mixing 10 µL of microbial culture with OD600 equal to 0.1 with growth medium and a solution of the tested compounds. The positive controls were vancomycin and tetracycline for Bacillus subtilis (100 µg/mL) for Gram-positive bacteria, kanamycin, and tetracycline for Acinetobacter baumannii (100 µg/mL) for Gram-negative bacteria, and clotrimazole or amphotericin (100 µg/mL) for fungi. The maximal concentration of tested lipoproteins was 1 mg/mL. A pure growth medium was used as the negative control. The measurement period was 25 h. The lowest concentration with a 100% inhibition effect for 24 h of incubation was chosen as the MIC. The antibacterial activity of each compound was expressed as the minimum inhibitory concentration MIC (MIC is the lowest concentration of the compound needed to inhibit the growth of bacterial cells) and IC50 (IC50 is the concentration of the compound needed to inhibit the growth of bacterial cells by 50%).

The next assay has as its system Ps. aeruginosa DBM 3081. Type of assay: cell-based, Pseudomonas aeruginosa. The following applies: 25 h. The procedure: as §1
Another assay deals with B. subtilis DBM 3006. The assay is classed as cell-based, Bacillus subtilis. The procedure: as §1
For the next assay, the system named is M. luteus DBM 3053. Type of assay: cell-based, Micrococcus luteus. The procedure: as §1
A further assay has as its system Staph. aureus DBM 3002. Type of assay: cell-based, Staphylococcus aureus. The protocol:
as §1

Assay [1] deals with Staph. aureus MRSA1. The assay is classed as cell-based, Staphylococcus aureus. The procedure:
as §1

In a further assay the test system is C. tropicalis DBM 2166. Type of assay: cell-based, Candida tropicalis. The protocol: as §1
Assay [2] concerns Staph. aureus MRSA1. Type of assay: cell-based, Staphylococcus aureus. The following applies: 24 h, 2. The protocol: This assay was used to determine how quick the effect of PAL/LCA-peptides is on bacteria, as well as whether the activity of these compounds is dependent on the presence of active bacterial metabolism (Kamysz et al. [2007]). The bacterial cultures were incubated overnight at 37 °C in Mueller–Hinton’s broth 2 or potassium phosphate buffer (0.1 M, pH 7). Cultures were diluted to OD600 equal to 0.1 and divided into 2 samples, and the final volume of each sample was 1 mL; after that, they were centrifuged (5000 × g, 10 min) to collect bacteria. […] The samples were incubated at 37 °C. At specific time intervals, samples of bacterial suspension were taken, diluted, and spread on Petri dishes with Mueller–Hinton’s agar to count the number of surviving cells as colony-forming units (CFU). The whole experiment lasted 24 h.

The test system of a further assay is bacterial membrane. The assay is described as follows: Membrane disruption (released lactate dehydrogenase activity). Type of assay: cell-based, Staphylococcus aureus. The following applies: 1 h incubation at 37 °C, LDH kit, triplets. The procedure:
The disruption of the microbial membrane was followed by the detection of lactate dehydrogenase activity released from the intracellular space using a Cytotoxicity Detection Kit (LDH) from Roche (Korzeniewski and Callewaert [1983]; Macurkova et al. [2014]) after 1 h incubation at 37 °C with the PAL/LCA-peptide. The culture supernatant was collected and incubated with the reaction mixture from the kit. In the first step, NAD^+ is reduced to NADH + H^+ by the LDH-catalyzed conversion of lactate to pyruvate. In the second step, the catalyst (diaphorase) transfers H/H^+ from NADH + H^+ to the tetrazolium salt 2-(4-iodophenyl)-3-(4-nitrophenyl)-5-phenyl-2H-tetrazolium chloride (INT), which is reduced to formazan. The formazan dye formed is red and water-soluble and gives a broad absorption maximum at 500 nm. An increase in the amount of dead or plasma membrane-damaged cells results in an increase in the LDH activity in the cell culture supernatant.
To determine the degree of damage to the cell membrane (%) by the tested substances, averages of absorbances (triplets) were calculated from the measured values for the samples, controls, and pure medium. Subsequently, the absorbance average for the clean medium (background) was subtracted from all averages obtained in this way. The degree of damage to the cell membrane by the tested substances was expressed as follows: membranedamage%=((AVZ-∅ANK)/(∅APK-ANK))∙100 ∅AVZ⋯averageabsorbanceofsample ∅ANK⋯averageabsorbanceofnegativecontrol ∅APK⋯averageabsorbanceofpositivecontrol

The next assay concerns plasmid pGreen 0029. The assay is described as follows: DNA binding assay (gel retardation). The following applies: circular or linearized forms, tested ratios. The procedure:
This assay was performed as described by Park et al. ([1998]), with a few modifications. […] The reaction mixture was incubated at room temperature for 1 h. Subsequently, 4 µL of native loading buffer (10% Ficol, 10 mM Tris–HCl (pH 7.5), 50 mM EDTA, 0.25% bromophenol blue) was added. An aliquot was applied to 1% agarose gel electrophoresis in 0.5xTris borate-EDTA buffer. Circular plasmid DNA was isolated from (Luria–Bertani medium with AMPI in final concentration 100 µg/mL) bacterial strain E. coli DH5α / pBluescriptII KS- that had been grown overnight, and linearization was performed overnight by enzymatic reaction using restriction endonuclease EcoRV at 37 °C. The evaluation was performed by visualizing the DNA with the intercalation dye Midori Green Advanced DNA Stain under UV light. Reduced electrophoretic mobility compared to the control is considered to be evidence of peptide binding to DNA.
According to the previous results, we decided to clarify one of the possible molecular interaction mechanisms, the ability of the studied lipopeptides to bind microbial plasmid DNA. Based on the assumption that pore formation is only one of the influencing factors, which arose from previous results, the effect on one of the possible intracellular targets, DNA, was determined. This determination was carried out on isolated plasmid DNA, specifically on two plasmids, pGreen 0029 and pBluescript II KS- in circular and linearized form.

By IC50 is commonly meant the concentration at which inhibition is half-maximal. What is called MIC is the least concentration at which growth counts as inhibited. Take `CCCCCCCCCCCCCCCC(=O)N[C@@H](CC(C)C)C(=O)N[C@H](C(=O)N[C@@H](CCCCN)C(=O)N[C@@H](CCCNC(=N)N)C(=O)N[C@@H](C)C(=O)NCC(N)=O)C(C)C` [SHP-1.2, PAL-LVKRAG-NH2] (Palmitoyl-LVKRAG-NH2): the IC50 in the assay on A. baumannii DBM 3183 is on record as 60.0 µg/mL (≈ 68.2 µM); in the assay on Ps. aeruginosa DBM 3081 it was 60.0 µg/mL (≈ 68.2 µM); with B. subtilis DBM 3006 (DBM 3006, 25 h), 25.0 µg/mL (≈ 28.4 µM); with M. luteus DBM 3053 (DBM 3053, 25 h), 10.0 µg/mL (≈ 11.4 µM); in the assay with Staph. aureus DBM 3002 (25 h), 50.0 µg/mL (≈ 56.8 µM); in the assay with Staph. aureus MRSA1 [1] (25 h), 12.5 µg/mL (≈ 14.2 µM). The same compound came in with an IC50 in the assay with C. tropicalis DBM 2166 (DBM 2166, 25 h) of 100.0 µg/mL (≈ 114 µM). Moreover, the MIC with B. subtilis DBM 3006 (DBM 3006, 24 h) was found to be 16.9 µg/mL (≈ 19.2 µM); in the assay with M. luteus DBM 3053 (DBM 3053, 24 h), 6.4 µg/mL (≈ 7.27 µM); with Staph. aureus DBM 3002 (24 h), 27.7 µg/mL (≈ 31.5 µM); against Staph. aureus MRSA1 [1] (24 h), 7.8 µg/mL (≈ 8.86 µM); in the assay with C. tropicalis DBM 2166 (DBM 2166, 24 h), 55.9 µg/mL (≈ 63.5 µM). For the same compound, in the assay on Staph. aureus MRSA1 [2], the “bacteria killed within half an hour” value stood at 100%. Also, the “Membrane damage (%)” value in the assay on bacterial membrane (KP (potassium phosphate buffer)) was 32 ± 4%; in the assay with bacterial membrane (MHB (Mueller–Hinton broth II)) it was 26 ± 3%. The “influence on electrophoretic mobility of plasmid DNA” value in the assay on plasmid pGreen 0029 is “did not exhibit any influence”.
